Measured values as given in US10112906B2, “1-aryl-3-alkylpyrazole insecticides” (E. I. DU PONT DE NEMOURS AND COMPANY, priority 2013, dated 2018).

How the values were obtained:
Format in all cases: in vivo
[1] = tested on: diamondback moth (Plutella xylostella (L.)); experiment: Test A: control of diamondback moth, foliar spray on mustard plant; conditions: neonate larvae, assessed after 6 days
Description: (§1) Test compounds were formulated using a solution containing 10% acetone, 90% water and 300 ppm X-77® Spreader Lo-Foam Formula non-ionic surfactant containing alkylarylpolyoxyethylene, free fatty acids, glycols and isopropanol (Loveland Industries, Inc. Greeley, Colo., USA). The formulated compounds were applied in 1 mL of liquid through a SUJ2 atomizer nozzle with ⅛ JJ custom body (Spraying Systems Co. Wheaton, Ill., USA) positioned 1.27 cm (0.5 inches) above the top of each test unit. Test compounds were sprayed at the rates indicated, and each test was replicated three times.
For evaluating control of diamondback moth (Plutella xylostella (L.)) the test unit consisted of a small open container with a 12-14-day-old mustard plant inside. This was pre-infested with ˜50 neonate larvae that were dispensed into the test unit via corn cob grits using an inoculator. The larvae moved onto the test plant after being dispensed into the test unit.
Test compounds were formulated and sprayed at 250 and/or 50 ppm. After spraying of the formulated test compound, each test unit was allowed to dry for 1 hour and then a black, screened cap was placed on top. The test units were held for 6 days in a growth chamber at 25° C. and 70% relative humidity. Plant feeding damage was then visually assessed based on foliage consumed, and larvae were assessed for mortality.

[2] = tested on: fall armyworm (Spodoptera frugiperda (J. E. Smith)); experiment: Test B: control of fall armyworm, foliar spray on corn (maize) plant; conditions: 1-day-old larvae, assessed after 6 days
Description: as §1
For evaluating control of fall armyworm (Spodoptera frugiperda (J. E. Smith)) the test unit consisted of a small open container with a 4-5-day-old corn (maize) plant inside. This was pre-infested with 10-15 1-day-old larvae on a piece of insect diet.
Test compounds were formulated and sprayed at 250 and/or 50 ppm. After spraying of the formulated test compound, the test units were maintained in a growth chamber for 6 days at 25° C. and 70% relative humidity. Plant feeding damage was then visually assessed based on foliage consumed, and larvae were assessed for mortality.

[3] = tested on: potato leafhopper (Empoasca fabae (Harris)); experiment: Test D: control of potato leafhopper through contact and/or systemic means; conditions: 144 h, Soleil bean plant, adults, assessed after 6 days; for mortality at 250 ppm: sprayed at 250 ppm
Description: as §1
For evaluating control of potato leafhopper (Empoasca fabae (Harris)) through contact and/or systemic means, the test unit consisted of a small open container with a 5-6-day-old Soleil bean plant (primary leaves emerged) inside. White sand was added to the top of the soil, and one of the primary leaves was excised prior to application of the test compound.
Test compounds were formulated and sprayed at 250 and/or 50 ppm. After spraying of the formulated test compound, the test units were allowed to dry for 1 hour before they were post-infested with 5 potato leafhoppers (18-to-21-day-old adults). A black, screened cap was placed on the top of the test unit, and the test units were held for 6 days in a growth chamber at 20° C. and 70% relative humidity. Each test unit was then visually assessed for insect mortality.

[4] = tested on: corn planthopper (Peregrinus maidis (Ashmead)); experiment: Test C: control of corn planthopper through contact and/or systemic means; conditions: 144 h, corn (maize) plant, nymphs, assessed after 6 days
Description: as §1
For evaluating control of corn planthopper (Peregrinus maidis (Ashmead)) through contact and/or systemic means, the test unit consisted of a small open container with a 3-4-day-old corn (maize) plant inside. White sand was added to the top of the soil prior to application of the test compound.
Test compounds were formulated and sprayed at 250 and/or 50 ppm. After spraying of the formulated test compound, the test units were allowed to dry for 1 h before they were post-infested with ˜15-20 nymphs (18-to-21-day-old). A black, screened cap was placed on the top of each test unit, and the test units were held for 6 days in a growth chamber at 22-24° C. and 50-70% relative humidity. Each test unit was then visually assessed for insect mortality.

Compound	control efficacy (40% or less feeding damage and/or 100% mortality) ([1]; sprayed at 50 ppm)	control efficacy (40% or less feeding damage and/or 100% mortality) ([1]; sprayed at 250 ppm)	control efficacy (40% or less feeding damage and/or 100% mortality) ([2]; sprayed at 50 ppm)	control efficacy (40% or less feeding damage and/or 100% mortality) ([2]; sprayed at 250 ppm)	also measured
C=Cc1nn(-c2ccc(Cl)c(Cl)c2)cc1CN1CCC(C#N)CC1 [Compound 15]	very good to excellent levels of control efficacy				
CCc1nn(-c2ccc(Cl)c(Cl)c2)cc1CN1CCC(C#N)CC1 [Compound 14]	very good to excellent levels of control efficacy				
N#CC1CCN(Cc2cn(-c3cc(C(F)(F)F)ccn3)nc2C2CCC2)CC1 [Compound 46, 1-[[3-cyclobutyl-1-[4-(trifluoromethyl)-2-pyridinyl]-1H-pyrazol-4-yl]methyl]-4-piperidinecarbonitrile]	very good to excellent levels of control efficacy	very good to excellent levels of control efficacy	very good to excellent levels of control efficacy	very good to excellent levels of control efficacy	mortality at 250 ppm [3]: ≥ 80%
N#CC1CCN(Cc2cn(-c3cc(Cl)ccn3)nc2C2CCCC2)CC1 [Compound 38, 1-[[1-(4-chloro-2-pyridinyl)-3-cyclopentyl-1H-pyrazol-4-yl]methyl]-4-piperidinecarbonitrile]	very good to excellent levels of control efficacy	very good to excellent levels of control efficacy	very good to excellent levels of control efficacy	very good to excellent levels of control efficacy	mortality at 250 ppm [3]: ≥ 80%
N#CC1CCN(Cc2cn(-c3ccc(Cl)c(Cl)c3)nc2Cc2ccc(F)cc2)CC1 [Compound 2]	very good to excellent levels of control efficacy				
FC(F)(F)C1CCN(Cc2cn(-c3ccc(Cl)c(Cl)c3)nc2C2CCC2)CC1 [Compound 28]	very good to excellent levels of control efficacy	very good to excellent levels of control efficacy	very good to excellent levels of control efficacy	very good to excellent levels of control efficacy	
N#CC1CCN(Cc2cn(-c3ccc(Cl)c(Cl)c3)nc2C#Cc2ccccc2)CC1 [Compound 32]	very good to excellent levels of control efficacy				
FC(F)(F)C1CCN(Cc2cn(-c3ccc(Cl)cn3)nc2C2CCCC2)CC1 [Compound 36]	very good to excellent levels of control efficacy	very good to excellent levels of control efficacy	very good to excellent levels of control efficacy	very good to excellent levels of control efficacy	
2-[3-cyclohexyl-4-[[4-(trifluoromethyl)-1-piperidinyl]methyl]-1H-pyrazol-1-yl]-4-(trifluoromethyl)pyridine [Compound 23]	very good to excellent levels of control efficacy	very good to excellent levels of control efficacy	very good to excellent levels of control efficacy	very good to excellent levels of control efficacy	
Cc1nn(-c2ccc(Cl)c(Cl)c2)cc1CN1CCC(C#N)CC1 [Compound 21]	very good to excellent levels of control efficacy	very good to excellent levels of control efficacy			
N#CC1CCN(Cc2cn(-c3ccc(Cl)c(Cl)c3)nc2Cc2ccccc2F)CC1 [Compound 1]	very good to excellent levels of control efficacy				
CC(=O)N[C@H]1CCN(Cc2cn(-c3ccc(Cl)c(Cl)c3)nc2C2CC2)C1 [Compound 13]	very good to excellent levels of control efficacy				
N#CC1CCN(Cc2cn(-c3cc(C(F)(F)F)ccn3)nc2C2CC2)CC1 [Compound 35]	very good to excellent levels of control efficacy	very good to excellent levels of control efficacy	very good to excellent levels of control efficacy	very good to excellent levels of control efficacy	
FC(F)(F)C1CCN(Cc2cn(-c3cc(Cl)ccn3)nc2C2CCCC2)CC1 [Compound 37]	very good to excellent levels of control efficacy	very good to excellent levels of control efficacy	very good to excellent levels of control efficacy	very good to excellent levels of control efficacy	
N#CC1CCN(Cc2cn(-c3ccc(Cl)c(Cl)c3)nc2C2CC2)CC1 [Compound 12]	very good to excellent levels of control efficacy				
CC(C)c1nn(-c2cc(C(F)(F)F)ccn2)cc1CN1CCC(C(F)(F)F)CC1 [Compound 54, 2-[3-(1-methylethyl)-4-[[4-(trifluoromethyl)-1-piperidinyl]methyl]-1H-pyrazol-1-yl]-4-(trifluoromethyl)pyridine]					mortality at 50 ppm ([4]; sprayed at 50 ppm): ≥ 80%; mortality at 250 ppm ([4]; sprayed at 250 ppm): ≥ 80%; mortality at 50 ppm ([3]; sprayed at 50 ppm): ≥ 80%; mortality at 250 ppm [3]: ≥ 80%
C[Si](C)(C)C#Cc1nn(-c2ccc(Cl)c(Cl)c2)cc1CN1CCC(C#N)CC1 [Compound 29]			very good to excellent levels of control efficacy		
O=C(NC1CCN(Cc2cn(-c3ccc(Cl)c(Cl)c3)nc2C2CCCCC2)C1)C1CC1 (centres unmarked) [Compound 20]		very good to excellent levels of control efficacy		very good to excellent levels of control efficacy	
Cc1nn(-c2ccc(Cl)c(Cl)c2)cc1CN1CCC(NC(=O)C2CC2)C1 (centres unmarked) [Compound 22]	very good to excellent levels of control efficacy	very good to excellent levels of control efficacy			
N#CC1CCN(Cc2cn(-c3ccc(Cl)c(Cl)c3)nc2C2CCCCC2)CC1 [Compound 19]			very good to excellent levels of control efficacy	very good to excellent levels of control efficacy	
N#CC1CCN(Cc2cn(-c3ccc(Cl)cc3)nc2C=CCl)CC1 [Compound 9]			very good to excellent levels of control efficacy	very good to excellent levels of control efficacy	
C#Cc1nn(-c2ccc(Cl)c(Cl)c2)cc1CN1CCC(C#N)CC1 [Compound 31]	very good to excellent levels of control efficacy				
